Data: PMC6325200, “Effects of Microplate Type and Broth Additives on Microdilution MIC Susceptibility Assays” (Antimicrobial Agents and Chemotherapy, 2018)
Values after ≈ are worked out from the molar mass of the structure shown.

What was measured:
[1] = tested on: E. coli; conditions: literature value; cited from earlier work
[2] = tested on: E. coli ATCC 25922; assay: microbe, parasite or virus in culture; conditions: n = 2
Description: A positive control of a row of just the bacteria and a negative control of only the medium were included for every plate tested.
The compounds along with standard antibiotics were serially diluted 2-fold across the 96-well plates. […] A sample of each culture was then diluted 40-fold in fresh MH broth (in presence and absence of Tween) and incubated at 37°C for 2 to 3 h.
For experiments in the presence of surfactant, 2% beractant (25 mg/ml) was added to the mid-log-phase cultures and mixed gently and added to all the 96-well plates. For experiments in the presence of serum, a mixture of 50% of human serum along with 50% MHB was prepared and used throughout the experiment.

[3] = tested on: A. baumannii ATCC 19606; assay: microbe, parasite or virus in culture; conditions: Acinetobacter baumannii, n = 2
In short: (§1)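 Every plate included two controls, one row of bacteria alone and one of medium only. Test agents and standard antibiotics underwent twofold dilution series in 96-well format, and cultures were diluted 40-fold into MH broth in the presence or absence of Tween before 2–3 h at 37°C.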

[4] = tested on: P. aeruginosa ATCC 10145; assay: microbe, parasite or virus in culture; conditions: Pseudomonas aeruginosa, n = 2
In short: as §1

[5] = tested on: K. pneumoniae ATCC 13883; assay: microbe, parasite or virus in culture; conditions: Klebsiella pneumoniae, n = 2
In short: as §1

In the case of `CC1(C)S[C@@H]2[C@H](NC(=O)Cc3ccccc3)C(=O)N2[C@H]1C(=O)O` [Penicillin G, penicillin G], the “MIC (literature)” value [1] is given as 16–64 ([71]) µg/ml, the MIC ([2]; Corning PS plate, MHB −T80, no additive) is given as 32 to 64 µg/mL and the MIC ([2]; Escherichia coli, ATCC25922, 24 h, Corning NBS, MH + 2% LHB, 2% LS) is given as 32 to 64 µg/mL. The MIC ([2]; Escherichia coli, ATCC25922, 24 h, Corning NBS, MH + 2% LHB, 50% HS) was 32 to 64 µg/mL, the MIC ([2]; Escherichia coli, ATCC25922, 24 h, Corning NBS, MH + 2% LHB, no additive) was 32 to 64 µg/mL and the MIC ([2]; Escherichia coli, ATCC25922, 24 h, Corning NBS, MH + T80, 2% LS) was 32 µg/mL. For the same compound, the MIC ([2]; Escherichia coli, ATCC25922, 24 h, Corning NBS, MH + T80, 50% HS) was 32 to 64 µg/mL, the MIC ([2]; Escherichia coli, ATCC25922, 24 h, Corning PS, MH + 2% LHB, 2% LS) was 32 to 64 µg/mL and the MIC ([2]; Escherichia coli, ATCC25922, 24 h, Corning PS, MH + 2% LHB, no additive) was 64 µg/mL. The MIC ([2]; Escherichia coli, ATCC25922, 24 h, Corning PS, MH + T80, 2% LS) was 32 to 64 µg/mL, the MIC ([2]; Escherichia coli, ATCC25922, 24 h, Corning PS, MH + T80, 50% HS) was 64 µg/mL and the MIC ([2]; Escherichia coli, ATCC25922, 24 h, Corning TC, MH + 2% LHB, 2% LS) was 32 to 64 µg/mL. For the same compound, the MIC ([2]; Escherichia coli, ATCC25922, 24 h, Corning TC, MH + 2% LHB, 50% HS) was 32 to 64 µg/mL, the MIC ([2]; Escherichia coli, ATCC25922, 24 h, Corning TC, MH + 2% LHB, no additive) was 64 µg/mL and the MIC ([2]; Escherichia coli, ATCC25922, 24 h, Corning TC, MH + T80, 2% LS) was 32 to 64 µg/mL. For the same compound, the MIC ([2]; Escherichia coli, ATCC25922, 24 h, Corning TC, MH + T80, 50% HS) was 64 µg/mL, the MIC ([2]; Escherichia coli, ATCC25922, 24 h, Trek PS, MH + 2% LHB, 2% LS) was 32 µg/mL and the MIC ([2]; Escherichia coli, ATCC25922, 24 h, Trek PS, MH + 2% LHB, 50% HS) was 32 µg/mL. For the same compound, the MIC ([2]; Escherichia coli, ATCC25922, 24 h, Trek PS, MH + 2% LHB, no additive) was 32 µg/mL, the MIC ([2]; Escherichia coli, ATCC25922, 24 h, Trek PS, MH + T80, 2% LS) was 32 µg/mL and the MIC ([2]; Escherichia coli, ATCC25922, 24 h, Trek PS, MH + T80, 50% HS) was 32 µg/mL. The MIC ([2]; Escherichia coli, ATCC25922, Corning NBS plate, MHB +0.002% T80, no further additive) was 64 µg/mL (≈ 191 µM), the MIC ([2]; Escherichia coli, ATCC25922, Corning NBS plate, MHB −T80, no additive) was 64 µg/mL (≈ 191 µM) and the MIC ([2]; Escherichia coli, ATCC25922, Corning NBS, MH, 2% LS) was 64 µg/mL (≈ 191 µM). It also gave an MIC ([2]; Escherichia coli, ATCC25922, Corning NBS, MH, 50% HS) of 64 µg/mL (≈ 191 µM), an MIC ([2]; Escherichia coli, ATCC25922, Corning PS plate, MHB +0.002% T80, no further additive) of 64 µg/mL (≈ 191 µM) and an MIC ([2]; Escherichia coli, ATCC25922, Corning PS plate, MHB −T80, no additive) of 32 to 64 µg/mL (≈ 95.7 to 191 µM). It also gave an MIC ([2]; Escherichia coli, ATCC25922, Corning PS, MH, 50% HS) of 64 µg/mL (≈ 191 µM), an MIC ([2]; Escherichia coli, ATCC25922, Corning TC plate, MHB +0.002% T80, no further additive) of 64 µg/mL (≈ 191 µM) and an MIC ([2]; Escherichia coli, ATCC25922, Corning TC plate, MHB −T80, no additive) of 32 µg/mL (≈ 95.7 µM). For the same compound, the MIC ([2]; Escherichia coli, ATCC25922, Corning TC, MH, 2% LS) was 64 µg/mL (≈ 191 µM), the MIC ([2]; Escherichia coli, ATCC25922, Corning TC, MH, 50% HS) was 64 µg/mL (≈ 191 µM) and the MIC ([2]; Escherichia coli, ATCC25922, Nunc PS plate, MHB +0.002% T80) was 64 µg/mL (≈ 191 µM). It also gave an MIC ([2]; Escherichia coli, ATCC25922, Nunc PS plate, MHB −T80) of 32 µg/mL (≈ 95.7 µM), an MIC ([2]; Escherichia coli, ATCC25922, Nunc U TC plate, MHB +0.002% T80) of 64 µg/mL (≈ 191 µM) and an MIC ([2]; Escherichia coli, ATCC25922, Nunc U TC plate, MHB −T80) of 32 µg/mL (≈ 95.7 µM). The MIC ([2]; Escherichia coli, ATCC25922, Nunc flat TC plate, MHB +0.002% T80) was 64 µg/mL (≈ 191 µM), the MIC ([2]; Escherichia coli, ATCC25922, Nunc flat TC plate, MHB −T80) was 32 to 64 µg/mL (≈ 95.7 to 191 µM) and the MIC ([2]; Escherichia coli, ATCC25922, Trek PS plate, MHB +0.002% T80, no further additive) was 32 to 64 µg/mL (≈ 95.7 to 191 µM). It also gave an MIC ([2]; Escherichia coli, ATCC25922, Trek PS plate, MHB −T80, no additive) of 64 µg/mL (≈ 191 µM), an MIC ([2]; Escherichia coli, ATCC25922, Trek PS, MH, 2% LS) of 64 µg/mL (≈ 191 µM) and an MIC ([2]; Trek PS plate, MHB +0.002% T80, no further additive) of 32 to 64 µg/mL. The MIC ([3]; ATCC19606, Corning NBS, MHB +T80) was greater than 64 µg/mL, the MIC ([3]; ATCC19606, Corning NBS, MHB -T80) was greater than 64 µg/mL and the MIC ([3]; ATCC19606, Corning PS, MHB +T80) was greater than 64 µg/mL. It also gave an MIC ([3]; ATCC19606, Corning PS, MHB -T80) greater than 64 µg/mL, an MIC ([3]; ATCC19606, Corning TC, MHB +T80) greater than 64 µg/mL and an MIC ([3]; ATCC19606, Corning TC, MHB -T80) greater than 64 µg/mL. For the same compound, the MIC ([4]; ATCC10145, Corning NBS, MHB +T80) was greater than 64 µg/mL, the MIC ([4]; ATCC10145, Corning NBS, MHB -T80) was greater than 64 µg/mL and the MIC ([4]; ATCC10145, Corning PS, MHB +T80) was greater than 64 µg/mL. It also gave an MIC ([4]; ATCC10145, Corning PS, MHB -T80) greater than 64 µg/mL, an MIC ([4]; ATCC10145, Corning TC, MHB +T80) greater than 64 µg/mL and an MIC ([4]; ATCC10145, Corning TC, MHB -T80) greater than 64 µg/mL. The MIC ([5]; ATCC13883, Corning NBS, MHB +T80) was greater than 64 µg/mL, the MIC ([5]; ATCC13883, Corning NBS, MHB -T80) was greater than 64 µg/mL and the MIC ([5]; ATCC13883, Corning PS, MHB +T80) was greater than 64 µg/mL. It also gave an MIC ([5]; ATCC13883, Corning PS, MHB -T80) greater than 64 µg/mL, an MIC ([5]; ATCC13883, Corning TC, MHB +T80) greater than 64 µg/mL and an MIC ([5]; ATCC13883, Corning TC, MHB -T80) greater than 64 µg/mL.
